# Reference: patent publication US10954228B2 (NATIONAL INSTITUTES OF HEALTH, UNITED STATES DEPARTMENT OF …, priority 2016, dated 2021)
# Tests used:
# MiaPaCa2 cells = test: cell-based HT lactate assay by colorimetric/fluorometric detection (cellular inhibition of lactate production); conditions: Homo sapiens, MIA PaCa-2, assay of Example 6
# Experimental: This example describes a cell-based metabolite assay by colorimetric/fluorometric detection employed in the characterization of a compound of formula (I) in an embodiment of the invention.
# Cell-based HT Lactate assay is a miniaturized Biovision Lactate Colorimetric/Fluorometric Assay Kit (Cat #K607-100). The assay is roughly a 3.5 hour assay run in a 1536 plate format. Cell number optimization should be run for each cell line to achieve an optimal number in which lactate production equals roughly 90% of the standard curve range. Cell number per well optimization has been performed with the following cell lines: MiaPaCa2—500 cells/well, SNU398—500 cells/well, and P493—500 cells/well.
# Human LDHA = Human LDHA (Homo sapiens (Human), UniProt P00338); test: human LDHA primary biochemical assay; conditions: biochemical LDHA inhibitory activity, assay of Example 1; activity level classes defined in nM
# Method in brief: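 Human LDHA at 2 nM with 0.06 mM NADH and 0.2 mM sodium pyruvate in 200 mM Tris HCl pH 7.4, 100 μM EDTA, 0.01% TWEEN-20 (final). NADH consumption coupled to resazurin/diaphorase (0.037 mM; 0.133 mg/mL); inhibition read by fluorescence.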
IC50 (MiaPaCa2 cells) [nM],IC50 (Human LDHA) [nM],Compound
< 1000,< 100,"NS(=O)(=O)c1ccc(Cc2c(-c3ccc(F)c(-c4cccc(Cl)c4)c3)nn(-c3nc(C(=O)O)cs3)c2CC2CC2)cc1F [Compound 149, 2-(3-(3′-chloro-6-fluoro-[1,1′-biphenyl]-3-yl)-5-(cyclopropylmethyl)-4-(3-fluoro-4-sulfamoylbenzyl)-1H-pyrazol-1-yl)thiazole-4-carboxylic acid]"
< 1000,< 100,"COc1ccc(-c2cc(-c3nn(-c4nc(C(=O)O)cs4)c(CC4CC4)c3Cc3ccc(S(N)(=O)=O)c(F)c3)ccc2F)cc1C [Compound 150, 2-(5-(cyclopropylmethyl)-3-(6-fluoro-4′-methoxy-3′-methyl-[1,1′-biphenyl]-3-yl)-4-(3-fluoro-4-sulfamoylbenzyl)-1H-pyrazol-1-yl)thiazole-4-carboxylic acid]"
< 1000,100 to 1000,"Cc1cc(C)cc(-c2cc(-c3nn(-c4nc(C(=O)O)cs4)c(CC4CC4)c3Cc3ccc(S(N)(=O)=O)c(F)c3)ccc2F)c1 [Compound 151, 2-(5-(cyclopropylmethyl)-3-(6-fluoro-3′,5′-dimethyl-[1,1′-biphenyl]-3-yl)-4-(3-fluoro-4-sulfamoylbenzyl)-1H-pyrazol-1-yl)thiazole-4-carboxylic acid]"
< 1000,< 100,"COc1cc(OC)cc(-c2cc(-c3nn(-c4nc(C(=O)O)cs4)c(CC4CC4)c3Cc3ccc(S(N)(=O)=O)c(F)c3)ccc2F)c1 [Compound 153, 2-(5-(cyclopropylmethyl)-3-(6-fluoro-3′,5′-dimethoxy-[1,1′-biphenyl]-3-yl)-4-(3-fluoro-4-sulfamoylbenzyl)-1H-pyrazol-1-yl)thiazole-4-carboxylic acid]"
< 1000,< 100,"NS(=O)(=O)c1ccc(Cc2c(-c3ccc(F)c(-c4ccc5c(c4)CCC5)c3)nn(-c3nc(C(=O)O)cs3)c2CC2CC2)cc1F [Compound 155, 2-(5-(cyclopropylmethyl)-3-(3-(2,3-dihydro-1H-inden-5-yl)-4-fluorophenyl)-4-(3-fluoro-4-sulfamoylbenzyl)-1H-pyrazol-1-yl)thiazole-4-carboxylic acid]"
< 1000,< 100,"NS(=O)(=O)c1ccc(Cc2c(-c3ccc(F)c(-c4cc(F)cc(F)c4)c3)nn(-c3nc(C(=O)O)cs3)c2CC2CC2)cc1F [Compound 156, 2-(5-(cyclopropylmethyl)-4-(3-fluoro-4-sulfamoylbenzyl)-3-(3′,5′,6-trifluoro-[1,1′-biphenyl]-3-yl)-1H-pyrazol-1-yl)thiazole-4-carboxylic acid]"
< 1000,100 to 1000,"NS(=O)(=O)c1ccc(Cc2c(-c3ccc(F)c(-c4cc(Cl)cc(Cl)c4)c3)nn(-c3nc(C(=O)O)cs3)c2CC2CC2)cc1F [Compound 157, 2-(5-(cyclopropylmethyl)-3-(3′,5′-dichloro-6-fluoro-[1,1′-biphenyl]-3-yl)-4-(3-fluoro-4-sulfamoylbenzyl)-1H-pyrazol-1-yl)thiazole-4-carboxylic acid]"
< 1000,< 100,"NS(=O)(=O)c1ccc(Cc2c(-c3cccc(-c4ccc(Cl)c(F)c4)c3)nn(-c3nc(C(=O)O)cs3)c2CC2CC2)cc1F [Compound 164, 2-(3-(4′-chloro-3′-fluoro-[1,1′-biphenyl]-3-yl)-5-(cyclopropylmethyl)-4-(3-fluoro-4-sulfamoylbenzyl)-1H-pyrazol-1-yl)thiazole-4-carboxylic acid]"
< 1000,< 100,"COc1ccc(-c2cccc(-c3nn(-c4nc(C(=O)O)cs4)c(CC4CC4)c3Cc3ccc(S(N)(=O)=O)c(F)c3)c2)cc1C [Compound 165, 2-(5-(cyclopropylmethyl)-4-(3-fluoro-4-sulfamoylbenzyl)-3-(4′-methoxy-3′-methyl-[1,1′-biphenyl]-3-yl)-1H-pyrazol-1-yl) thiazole-4-carboxylic acid]"
< 1000,< 100,"NS(=O)(=O)c1ccc(Cc2c(-c3cccc(-c4ccc(Cl)cc4)c3)nn(-c3nc(C(=O)O)cs3)c2CC2CC2)cc1F [Compound 166, 2-(3-(4′-chloro-[1,1′-biphenyl]-3-yl)-5-(cyclopropylmethyl)-4-(3-fluoro-4-sulfamoylbenzyl)-1H-pyrazol-1-yl)thiazole-4-carboxylic acid]"
< 1000,< 100,"Cc1ccc(-c2cccc(-c3nn(-c4nc(C(=O)O)cs4)c(CC4CC4)c3Cc3ccc(S(N)(=O)=O)c(F)c3)c2)cc1F [Compound 167, 2-(5-(cyclopropylmethyl)-3-(3′-fluoro-4′-methyl-[1,1′-biphenyl]-3-yl)-4-(3-fluoro-4-sulfamoylbenzyl)-1H-pyrazol-1-yl)thiazole-4-carboxylic acid]"
< 1000,100 to 1000,"CC(C)(C)c1ccc(-c2cccc(-c3nn(-c4nc(C(=O)O)cs4)c(CC4CC4)c3Cc3ccc(S(N)(=O)=O)c(F)c3)c2)cc1 [Compound 168, 2-(3-(4′-(tert-butyl)-[1,1′-biphenyl]-3-yl)-5-(cyclopropylmethyl)-4-(3-fluoro-4-sulfamoylbenzyl)-1H-pyrazol-1-yl)thiazole-4-carboxylic acid]"
< 1000,< 100,"CC(C)c1ccc(-c2cccc(-c3nn(-c4nc(C(=O)O)cs4)c(CC4CC4)c3Cc3ccc(S(N)(=O)=O)c(F)c3)c2)cc1 [Compound 169, 2-(5-(cyclopropylmethyl)-4-(3-fluoro-4-sulfamoylbenzyl)-3-(4′-isopropyl-[1,1′-biphenyl]-3-yl)-1H-pyrazol-1-yl)thiazole-4-carboxylic acid]"
> 57000,< 100,"CC(C)c1cccc(-c2cccc(-c3nn(-c4nc(C(=O)O)cs4)c(CC4CC4)c3Cc3ccc(S(N)(=O)=O)c(F)c3)c2)c1 [Compound 173, 2-(5-(cyclopropylmethyl)-4-(3-fluoro-4-sulfamoylbenzyl)-3-(3′-isopropyl-[1,1′-biphenyl]-3-yl)-1H-pyrazol-1-yl)thiazole-4-carboxylic acid]"
> 57000,100 to 1000,"NS(=O)(=O)c1ccc(Cc2c(-c3cccc(-c4ccc5c(c4)CCCC5)c3)nn(-c3nc(C(=O)O)cs3)c2CC2CC2)cc1F [Compound 174, 2-(5-(cyclopropylmethyl)-4-(3-fluoro-4-sulfamoylbenzyl)-3-(3-(5,6,7,8-tetrahydronaphthalen-2-yl)phenyl)-1H-pyrazol-1-yl)thiazole-4-carboxylic acid]"
> 57000,< 100,"NS(=O)(=O)c1ccc(Cc2c(-c3cccc(-c4cccc(Cl)c4)c3)nn(-c3nc(C(=O)O)cs3)c2CC2CC2)cc1F [Compound 175, 2-(3-(3′-chloro-[1,1′-biphenyl]-3-yl)-5-(cyclopropylmethyl)-4-(3-fluoro-4-sulfamoylbenzyl)-1H-pyrazol-1-yl)thiazole-4-carboxylic acid]"
> 57000,< 100,"N#Cc1ccc(-c2cccc(-c3nn(-c4nc(C(=O)O)cs4)c(CC4CC4)c3Cc3ccc(S(N)(=O)=O)c(F)c3)c2)cc1 [Compound 176, 2-(3-(4′-cyano-[1,1′-biphenyl]-3-yl)-5-(cyclopropylmethyl)-4-(3-fluoro-4-sulfamoylbenzyl)-1H-pyrazol-1-yl)thiazole-4-carboxylic acid]"
> 57000,< 100,"NS(=O)(=O)c1ccc(Cc2c(-c3cccc(-c4cc(F)cc(F)c4)c3)nn(-c3nc(C(=O)O)cs3)c2CC2CC2)cc1F [Compound 177, 2-(5-(cyclopropylmethyl)-3-(3′,5′-difluoro-[1,1′-biphenyl]-3-yl)-4-(3-fluoro-4-sulfamoylbenzyl)-1H-pyrazol-1-yl)thiazole-4-carboxylic acid]"
> 57000,< 100,"CN(C)c1ccc(-c2cccc(-c3nn(-c4nc(C(=O)O)cs4)c(CC4CC4)c3Cc3ccc(S(N)(=O)=O)c(F)c3)c2)cc1 [Compound 178, 2-(5-(cyclopropylmethyl)-3-(4′-(dimethylamino)-[1,1′-biphenyl]-3-yl)-4-(3-fluoro-4-sulfamoylbenzyl)-1H-pyrazol-1-yl)thiazole-4-carboxylic acid]"
> 57000,1000 to 57000,"Cc1ccc(C#Cc2cccc(-c3nn(-c4nc(C(=O)NC#N)cs4)c(CC4CC4)c3Cc3ccc(S(N)(=O)=O)c(F)c3)c2)s1 [Compound 179, N-cyano-2-(5-(cyclopropylmethyl)-4-(3-fluoro-4-sulfamoylbenzyl)-3-(3-((5-methylthiophen-2-yl)ethynyl)phenyl)-1H-pyrazol-1-yl)thiazole-4-carboxamide]"
